Test results published in patent publication US9359308B2, “Pyrazine kinase inhibitors” (Portola Pharmaceuticals, Inc., priority 2011, dated 2016).

The molecules below were run against T1, full length active recombinant SYK enzyme (Homo sapiens, UniProt P43405) (assay: Inhibition of Syk tyrosine phosphorylation activity (LANCE TR-FRET kinase assay)). Details: activity in the Syk assays, class symbols.
T1 construct: full length active recombinant SYK enzyme (Millipore, Calif.); purchased Millipore
Type: biochemical
Description: The in vitro and in vivo human Syk activities of the inventive compounds can be determined by various procedures known in the art, such as a test for their ability to inhibit the activity of human plasma Syk. […] The IC50 value is the concentration (in nM) of the compound required to provide 50% inhibition of human Syk proteolytic activity.
An in vitro assay for detecting and measuring inhibition activity against Syk is as follows:
Inhibition of Syk Tyrosine Phosphorylation Activity
Potency of candidate molecules for inhibiting Syk tyrosine phosphorylation activity is assessed by measuring the ability of a test compound to inhibit Syk-mediated tyrosine phosphorylation of a Syk-specific substrate.
SYK tyrosine phosphorylation activity is measured using the LANCE™ Technology developed by Perkin Elmer Life and Analytical Sciences (Boston, Mass.). LANCE™ refers to homogeneous time resolved fluorometry applications using techniques such as time-resolved fluorescence resonance energy transfer assay (TR-FRET) (see generally for procedures in Perkin Elmer Application Note-How to Optimize a Tyrosine Kinase Assay Using Time Resolved Fluorescence-Based LANCE Detection, wwww.perkinelmer.com/lifesciences). The assay principle involves detection of a phosphorylated substrate using energy transfer from a phosphospecific europium-labeled antibody to streptavidin-allophycocyanin as an acceptor.
To test the ability of candidate molecules to inhibit SYK tyrosine phosphorylation activity, molecules are reconstituted in 30% DMSO and serially diluted 1:3 with the final dilution containing DMSO in the absence of the candidate molecule. The final DMSO concentration in the assay is 3%. Kinase assays are performed as a two part reaction. The first reaction is a kinase reaction and which comprises of a candidate molecule, full length active recombinant SYK enzyme (Millipore, Calif.) and biotin-labeled SYK-specific substrate biotin-DEEDYESP-OH. The second reaction involves termination of the kinase reaction and the simultaneous addition of the detection reagents-europium-labeled anti-phosphotyrosine reagent (Eu-W1024-PY100, Perkin Elmer, Boston, Mass.) and Streptavidin-Allophycocyanin detection reagent (SA-APC, Prozyme, CA). The kinase reaction is performed in a black U-bottom 96-well microtitre plate. The final reaction volume is 50 μL and contains a final concentration of 1 nM active SYK enzyme, 550 nM SYK-substrate, and 100 μM ATP diluted in a buffer containing 50 mM Tris pH 7.5, 5 mM MgCl2, and 1 mM DTT. The reaction is allowed to proceed for 1 hour at room temperature. The quench buffer contains 100 mM Tris pH 7.5, 300 mM NaCl2, 20 mM EDTA, 0.02% Brij35, and 0.5% BSA. The detection reagents are added to the reaction mixture at the following dilutions-1:500 for Eu-W1024-PY100 and 1:250 for SA-APC. The kinase reaction is terminated by the addition of 50 μL quench buffer containing the detection reagents. The detection is allowed to proceed for 1 hr at room temperature. Detection of the phosphorlated substrate in the absence and presence of inhibitors is measured in the TR-FRET instrument, Analyst HT (Molecular Probes, Sunnyvale, Calif.) and the condition for measurements are set up using CriterionHost Release 2.0 (Molecular Probes, Sunnyvale, Calif.). The settings used are a follows: excitation 360 nm, emission 665-7.5 nm, beam splitter 350 nm 50/50, flash 100 pulses, delay 60 us, integration 400 us, z-height 2 mm. Inhibition of SYK-tyrosine kinase activity is calculated as the maximum response observed in the presence of inhibitor, compared to that in the absence of inhibitor. IC50s were derived by non-linear regression analysis.

SMILES	IC50 [µM]
CC(C)C[C@@H](Nc1cnc(C(N)=O)c(Nc2ccc(C(F)(F)F)nc2)n1)C(N)=O [Example 85, (R)-5-(1-amino-4-methyl-1-oxopentan-2-ylamino)-3-(6-(trifluoromethyl)pyridin-3-ylamino)pyrazine-2-carboxamide]	0.01 to 0.1
COc1ccc(C(=O)N(C)C)cc1Nc1nc(N[C@@H]2CCCC[C@@H]2N)cnc1C(N)=O [Example 290, 5-((1R,2S)-2-aminocyclohexylamino)-3-(5-(dimethylcarbamoyl)-2-methoxyphenylamino)pyrazine-2-carboxamide]	0.1 to 1
CC[C@@H](Nc1cnc(C(N)=O)c(-n2cnc(-c3ccc(N)cc3)c2)n1)C(N)=O [Example 97, (R)-5-(1-amino-1-oxobutan-2-ylamino)-3-(4-(4-aminophenyl)-1H-imidazol-1-yl)pyrazine-2-carboxamide]	> 1
NC(=O)c1ncc(N[C@@H]2CCCC[C@@H]2N)nc1Nc1cccc(C(=O)N2CCCC2)c1 [Example 287, 5-((1R,2S)-2-aminocyclohexylamino)-3-(3-(pyrrolidine-1-carbonyl)phenylamino)pyrazine-2-carboxamide]	0.01 to 0.1
CC(C)[C@@H](Nc1cnc(C(N)=O)c(Nc2cccc(-n3nccn3)c2)n1)C(N)=O [Example 65, (R)-3-(3-(2H-1,2,3-triazol-2-yl)phenylamino)-5-(1-amino-3-methyl-1-oxobutan-2-ylamino)pyrazine-2-carboxamide]	0.01 to 0.1
CC[C@@H](Nc1cnc(C(N)=O)c(Nc2cc(C(C)C)ns2)n1)C(N)=O [Example 240, (R)-5-(1-amino-1-oxobutan-2-ylamino)-3-(3-isopropylisothiazol-5-ylamino)pyrazine-2-carboxamide]	0.01 to 0.1
CC(C)[C@@H](Nc1cnc(C(N)=O)c(Nc2ccc(OCC(F)(F)F)nc2)n1)C(N)=O [Example 327, (R)-5-(1-amino-3-methyl-1-oxobutan-2-ylamino)-3-(6-(2,2,2-trifluoroethoxy)pyridin-3-ylamino)pyrazine-2-carboxamide]	0.1 to 1
CC[C@@H](Nc1cnc(C(N)=O)c(Nc2ccc(N(C)C(C)=O)cc2)n1)C(N)=O [Example 161, (R)-5-(1-amino-1-oxobutan-2-ylamino)-3-(4-(N-methylacetamido)phenylamino)pyrazine-2-carboxamide]	0.1 to 1
NC(=O)c1ncc(N[C@@H]2CCCC[C@@H]2N)nc1Nc1cc(-c2ncccn2)cc(-n2cccn2)c1 [Example 45, 3-(3-(1H-pyrazol-1-yl)-5-(pyrimidin-2-yl)phenylamino)-5-((1R,2S)-2-aminocyclohexylamino)pyrazine-2-carboxamide]	0.001 to 0.01
Cc1cc(Nc2nc(N[C@H](Cc3c[nH]c4ccccc34)C(N)=O)cnc2C(N)=O)sn1 [Example 389, (R)-5-(1-amino-3-(1H-indol-3-yl)-1-oxopropan-2-ylamino)-3-(3-methylisothiazol-5-ylamino)pyrazine-2-carboxamide]	0.001 to 0.01
CC[C@@H](Nc1cnc(C(N)=O)c(Nc2ccc(C(=O)N(C)C)cc2)n1)C(N)=O [Example 299, (R)-5-(1-amino-1-oxobutan-2-ylamino)-3-(4-(dimethylcarbamoyl)phenylamino)pyrazine-2-carboxamide]	0.1 to 1
NC(=O)c1ncc(N[C@@H]2CCCC(F)(F)[C@@H]2N)nc1Nc1ccc2ccncc2c1 [Example 385, 5-((1R,2R)-2-amino-3,3-difluorocyclohexylamino)-3-(isoquinolin-7-ylamino)pyrazine-2-carboxamide]	0.001 to 0.01
CC[C@@H](Nc1cnc(C(N)=O)c(Nc2cncc(OC)c2)n1)C(N)=O [Example 322, (R)-5-(1-amino-1-oxobutan-2-ylamino)-3-(5-methoxypyridin-3-ylamino)pyrazine-2-carboxamide]	0.1 to 1
NC(=O)c1ncc(N[C@@H]2CCCC(F)(F)[C@@H]2N)nc1Nc1cc(F)c2ncccc2c1 [Example 210, 5-((1R,2R)-2-amino-3,3-difluorocyclohexylamino)-3-(8-fluoroquinolin-6-ylamino)pyrazine-2-carboxamide]	0.001 to 0.01
CC[C@@H](Nc1cnc(C(N)=O)c(Nc2cnc(N(C)C)c(C)c2)n1)C(N)=O [Example 314, (R)-5-(1-amino-1-oxobutan-2-ylamino)-3-(6-(dimethylamino)-5-methylpyridin-3-ylamino)pyrazine-2-carboxamide]	0.1 to 1
CC[C@@H](Nc1cnc(C(N)=O)c(Nc2ccnc(OC)c2)n1)C(N)=O [Example 302, (R)-5-(1-amino-1-oxobutan-2-ylamino)-3-(2-methoxypyridin-4-ylamino)pyrazine-2-carboxamide]	0.01 to 0.1
CC(C)[C@@H](Nc1cnc(C(N)=O)c(Nc2cnc3ccncc3c2)n1)C(N)=O [Example 194, (R)-3-(1,6-naphthyridin-3-ylamino)-5-(1-amino-3-methyl-1-oxobutan-2-ylamino)pyrazine-2-carboxamide]	0.001 to 0.01
COc1cc(Nc2nc(N[C@H]3CCCC[C@@H]3N)cnc2C(N)=O)cc(OC)c1 [Example 93, 5-(((1S,2S)-2-aminocyclohexyl)amino)-3-((3,5-dimethoxyphenyl)amino)pyrazine-2-carboxamide]	0.001 to 0.01

More lines, now with the values ahead:

IC50 [µM]	SMILES
0.001 to 0.01	Cn1ccc2cc(Nc3nc(N[C@@H]4CCCC(F)(F)[C@@H]4N)cnc3C(N)=O)ccc21 [Example 391, 5-((1R,2R)-2-amino-3,3-difluorocyclohexylamino)-3-(1-methyl-1H-indol-5-ylamino)pyrazine-2-carboxamide]
0.001 to 0.01	CC(C)[C@@H](Nc1cnc(C(N)=O)c(Nc2ccc3ccncc3c2)n1)C(N)=O [Example 195, (R)-5-(1-amino-3-methyl-1-oxobutan-2-ylamino)-3-(isoquinolin-7-ylamino)pyrazine-2-carboxamide]
0.001 to 0.01	COc1ccc(Nc2nc(N[C@H](CC(C)C)C(N)=O)cnc2C(N)=O)cn1 [Example 312, (R)-5-(1-amino-4-methyl-1-oxopentan-2-ylamino)-3-(6-methoxypyridin-3-ylamino)pyrazine-2-carboxamide]
0.001 to 0.01	NC(=O)c1ncc(N[C@H](CC(F)F)C(N)=O)nc1Nc1cnc2cccnc2c1 [Example 127, (R)-3-((1,5-naphthyridin-3-yl)amino)-5-((1-amino-4,4-difluoro-1-oxobutan-2-yl)amino)pyrazine-2-carboxamide]
0.001 to 0.01	CC(C)(C)C[C@@H](Nc1cnc(C(N)=O)c(Nc2cncc(F)c2)n1)C(N)=O [Example 247, (R)-5-(1-amino-4,4-dimethyl-1-oxopentan-2-ylamino)-3-(5-fluoropyridin-3-ylamino)pyrazine-2-carboxamide]
0.001 to 0.01	NC(=O)c1ncc(N[C@@H](C(N)=O)C2CC2)nc1Nc1ccc2cnccc2c1 [Example 190, (R)-5-(2-amino-1-cyclopropyl-2-oxoethylamino)-3-(isoquinolin-6-ylamino)pyrazine-2-carboxamide]
0.001 to 0.01	Cc1ccc(Nc2nc(N[C@@H]3CCOC[C@@H]3N)cnc2C(N)=O)cc1 [Example 78, 5-((3R,4R)-3-aminotetrahydro-2H-pyran-4-ylamino)-3-(p-tolylamino)pyrazine-2-carboxamide]
0.001 to 0.01	CC[C@@H](Nc1cnc(C(N)=O)c(Nc2cc(F)c3ncccc3c2)n1)C(N)=O [Example 208, (R)-5-(1-amino-1-oxobutan-2-ylamino)-3-(8-fluoroquinolin-6-ylamino)pyrazine-2-carboxamide]
< 0.001	Cc1nsc(Nc2nc(N[C@@H]3CCCC[C@@H]3N)cnc2C(N)=O)c1C [Example 131, 5-(((1R,2S)-2-aminocyclohexyl)amino)-3-((3,4-dimethylisothiazol-5-yl)amino)pyrazine-2-carboxamide]
< 0.001	NC(=O)c1ncc(N[C@H](Cc2cccs2)C(N)=O)nc1Nc1ccc2ncccc2c1 [Example 32, (R)-5-(1-amino-1-oxo-3-(thiophen-2-yl)propan-2-ylamino)-3-(quinolin-6-ylamino)pyrazine-2-carboxamide]
